Laboratory results as given in EP3011959A1, “Quaternary ammonium compound for use as an inhibitor of protein kinase C alpha” (Santen SAS, priority 2014, dated 2016).

Key:
Format in all cases: cell-based
PKC alpha = PKC alpha (Homo sapiens, UniProt P17252); test: Cellular assay of protein kinase C inhibition, PKC alpha; details: read-out: IC 50 PKC alpha
Procedure: (§1) CKC was tested on a cellular assay to evaluate the protein kinase C inhibition (PKC). Four subtypes of PKC are evaluated (α, β1, β2 and δ). Table 1. Cellular assay to evaluate the action of CKC on four subtypes of PKC.

PKC beta 1 = PKC beta 1 (Homo sapiens, UniProt P05771); test: Cellular assay of protein kinase C inhibition, PKC beta 1; design: key: *: IC 50 too high to be measured by apparatus
Procedure: as §1

PKC beta 2 = PKC beta 2 (Homo sapiens, UniProt P05771); test: Cellular assay of protein kinase C inhibition, PKC beta 2; design: key: *: IC 50 too high to be measured by apparatus
Procedure: as §1

PKC delta = PKC delta (Homo sapiens, UniProt Q05655); test: Cellular assay of protein kinase C inhibition, PKC delta; design: key: *: IC 50 too high to be measured by apparatus
Procedure: as §1

PKC delta, sequence (Q05655 whole entry): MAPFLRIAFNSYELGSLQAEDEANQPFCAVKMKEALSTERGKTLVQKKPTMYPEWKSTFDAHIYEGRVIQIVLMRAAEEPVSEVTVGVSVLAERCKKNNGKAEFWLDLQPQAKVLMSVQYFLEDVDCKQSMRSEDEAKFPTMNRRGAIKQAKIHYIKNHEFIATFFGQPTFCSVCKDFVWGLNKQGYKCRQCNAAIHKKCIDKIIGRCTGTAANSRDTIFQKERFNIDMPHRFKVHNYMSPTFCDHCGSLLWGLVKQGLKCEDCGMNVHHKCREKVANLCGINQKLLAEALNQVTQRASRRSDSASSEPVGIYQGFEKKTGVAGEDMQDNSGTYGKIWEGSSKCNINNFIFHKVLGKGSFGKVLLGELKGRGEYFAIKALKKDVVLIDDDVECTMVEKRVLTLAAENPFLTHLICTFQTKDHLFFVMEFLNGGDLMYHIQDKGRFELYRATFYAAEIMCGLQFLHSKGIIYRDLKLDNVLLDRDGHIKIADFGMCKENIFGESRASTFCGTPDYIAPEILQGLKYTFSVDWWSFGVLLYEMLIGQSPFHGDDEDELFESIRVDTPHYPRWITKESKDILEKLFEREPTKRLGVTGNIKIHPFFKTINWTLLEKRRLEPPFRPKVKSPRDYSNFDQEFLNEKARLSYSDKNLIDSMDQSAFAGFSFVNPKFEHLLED
PKC beta 1, sequence (P05771 whole entry): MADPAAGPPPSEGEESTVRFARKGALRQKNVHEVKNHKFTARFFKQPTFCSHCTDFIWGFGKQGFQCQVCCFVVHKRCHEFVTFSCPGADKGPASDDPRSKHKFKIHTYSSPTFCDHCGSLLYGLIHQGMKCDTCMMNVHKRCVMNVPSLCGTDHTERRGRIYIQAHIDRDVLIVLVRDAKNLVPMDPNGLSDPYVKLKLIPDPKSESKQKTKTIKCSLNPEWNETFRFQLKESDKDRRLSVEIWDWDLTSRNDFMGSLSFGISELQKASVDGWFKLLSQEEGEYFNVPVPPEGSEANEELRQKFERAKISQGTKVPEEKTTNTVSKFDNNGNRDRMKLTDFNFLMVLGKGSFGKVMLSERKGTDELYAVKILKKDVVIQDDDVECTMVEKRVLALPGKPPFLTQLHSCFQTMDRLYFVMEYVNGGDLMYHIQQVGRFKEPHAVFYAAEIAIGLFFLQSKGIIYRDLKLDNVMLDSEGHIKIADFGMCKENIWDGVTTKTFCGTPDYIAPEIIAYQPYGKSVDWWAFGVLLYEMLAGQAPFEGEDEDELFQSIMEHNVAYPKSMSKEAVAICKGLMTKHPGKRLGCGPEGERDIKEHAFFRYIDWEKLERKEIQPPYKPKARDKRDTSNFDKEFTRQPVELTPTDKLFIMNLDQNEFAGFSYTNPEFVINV
PKC beta 2, sequence (P05771 1-673 isoform P05771-2): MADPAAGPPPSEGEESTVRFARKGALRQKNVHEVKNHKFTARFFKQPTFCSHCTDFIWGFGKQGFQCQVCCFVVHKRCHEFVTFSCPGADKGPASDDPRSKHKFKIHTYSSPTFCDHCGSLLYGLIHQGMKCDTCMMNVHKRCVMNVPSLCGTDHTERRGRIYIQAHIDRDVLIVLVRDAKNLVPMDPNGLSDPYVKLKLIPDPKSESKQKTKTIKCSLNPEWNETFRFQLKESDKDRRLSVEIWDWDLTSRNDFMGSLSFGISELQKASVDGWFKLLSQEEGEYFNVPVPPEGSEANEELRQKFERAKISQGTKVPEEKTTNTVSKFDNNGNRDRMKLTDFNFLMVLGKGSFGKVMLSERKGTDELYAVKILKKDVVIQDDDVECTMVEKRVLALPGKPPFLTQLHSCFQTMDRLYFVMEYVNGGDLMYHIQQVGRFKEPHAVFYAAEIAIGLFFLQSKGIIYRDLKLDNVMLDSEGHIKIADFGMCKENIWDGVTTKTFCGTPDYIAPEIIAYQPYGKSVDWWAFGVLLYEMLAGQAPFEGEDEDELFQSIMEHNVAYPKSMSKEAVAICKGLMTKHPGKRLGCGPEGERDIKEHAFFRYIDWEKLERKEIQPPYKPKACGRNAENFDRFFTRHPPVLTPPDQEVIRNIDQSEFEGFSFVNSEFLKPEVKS

IC50 (PKC alpha): 4.29 µM | IC 50 PKC beta 1 (PKC beta 1): * | IC 50 PKC beta 2 (PKC beta 2): * | IC 50 PKC delta (PKC delta): *
Structure (SMILES): CCCCCCCCCCCCCCCC[N+](C)(C)Cc1ccccc1 [CKC, cetalkonium chloride]
